Assay results: patent US20030008922A1, “Multiple drug resistance reversal agent” (priority 2002, published 2003)

Key:
[1] = target: T1, Pgp (Homo sapiens, UniProt P08183); assay: Inhibition of 125IAAP binding to Pgp (photoaffinity substrate displacement)
Protocol: (§1) Pgp ATPase stimulation activity was determined along with displacement of the prazosin analog, iodoarylazidoprazosin (^125IAAP). Ambudkar, S. V. Methods Enzymol 1998, 292: 504-514; Dey, S. et al. Methods Enzymol. 1998, 292: 318.
(§2) The effect of the homodimers of the present invention on ATPase activity and IAAP binding to Pgp are very potent. ATPase stimulation reaches a maximum at low concentration (1 μM) and steadily drops off as the concentration is increased (not shown). In contrast with the other homodimers, the X=5 compound slowly achieves maximum stimulation up to 50 μM and this level is maintained as the concentration increases. The other dimers are similar to the monomeric compounds where maximum stimulation is achieved and rapidly drops off as concentration increases. More surprising are the Pgp displacement of photoaffinity labeled substrate analog by the heterodimers. For example, with the heterodimer where X=12 is shown to bind tightly at 1.7 μM.

[2] = target: T1, Pgp; assay: Pgp ATPase activity (ATP-hydrolysis); type: biochemical; conditions: values >1 represent stimulation, values <1 represent inhibition
Protocol: as §1, §2

T1 sequence (P08183 whole entry): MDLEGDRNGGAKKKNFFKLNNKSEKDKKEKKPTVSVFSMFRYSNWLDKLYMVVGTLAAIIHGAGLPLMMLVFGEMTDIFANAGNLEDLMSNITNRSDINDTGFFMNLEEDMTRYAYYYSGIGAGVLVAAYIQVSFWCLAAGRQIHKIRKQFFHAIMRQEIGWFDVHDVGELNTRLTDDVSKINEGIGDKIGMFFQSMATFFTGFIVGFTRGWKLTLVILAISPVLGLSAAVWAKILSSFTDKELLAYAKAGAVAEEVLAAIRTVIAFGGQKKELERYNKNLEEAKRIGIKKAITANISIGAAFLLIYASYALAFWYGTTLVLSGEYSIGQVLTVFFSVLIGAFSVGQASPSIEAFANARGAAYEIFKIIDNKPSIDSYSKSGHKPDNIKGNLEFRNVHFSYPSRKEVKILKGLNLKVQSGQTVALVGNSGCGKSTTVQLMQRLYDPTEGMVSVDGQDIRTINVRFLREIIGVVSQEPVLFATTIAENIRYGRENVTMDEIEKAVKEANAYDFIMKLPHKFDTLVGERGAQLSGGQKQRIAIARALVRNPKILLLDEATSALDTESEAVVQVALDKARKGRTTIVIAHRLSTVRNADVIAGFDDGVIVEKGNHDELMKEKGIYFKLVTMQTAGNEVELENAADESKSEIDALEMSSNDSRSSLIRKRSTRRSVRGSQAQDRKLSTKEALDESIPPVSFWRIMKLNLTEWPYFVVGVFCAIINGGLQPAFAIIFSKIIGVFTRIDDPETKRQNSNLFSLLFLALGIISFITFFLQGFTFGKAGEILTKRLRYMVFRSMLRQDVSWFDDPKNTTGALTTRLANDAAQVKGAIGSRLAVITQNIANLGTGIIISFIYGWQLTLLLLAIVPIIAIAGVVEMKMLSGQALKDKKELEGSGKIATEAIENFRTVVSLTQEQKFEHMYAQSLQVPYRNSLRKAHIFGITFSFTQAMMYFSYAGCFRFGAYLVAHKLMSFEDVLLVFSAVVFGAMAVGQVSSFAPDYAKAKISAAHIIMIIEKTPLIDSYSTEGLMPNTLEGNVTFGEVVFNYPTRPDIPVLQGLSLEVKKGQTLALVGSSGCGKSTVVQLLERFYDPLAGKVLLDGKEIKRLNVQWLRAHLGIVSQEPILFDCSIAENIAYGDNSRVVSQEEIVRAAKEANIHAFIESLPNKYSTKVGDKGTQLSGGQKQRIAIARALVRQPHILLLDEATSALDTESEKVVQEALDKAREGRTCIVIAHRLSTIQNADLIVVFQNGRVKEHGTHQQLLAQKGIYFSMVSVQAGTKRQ

Ki [1]: 7.6 µM
ATPase activity [2]: 0.34 fraction of control
SMILES: CC(=CCCC#CC=CC(C)C(O)C(C)=CCCc1ccc2ccccc2c1)C(=O)NCCOCCOCCOCCOCCOCCO (centres unmarked) [compound 16]
